PubChem BioAssay AID463089 (NMMLSC, 2010)
Calls of active or inactive are those of the source.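 Rule for the calls: active = compound whose binding-signal loss grows with dose, reaching half its maximum below 10 micromolar; inactive = the rest.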

Legend:
[1] = MEKK2 PB1 heterodimer disruption – biochemical, TR-FRET, Eu and Cy5 interference panels, dose response (AID 463089); conditions: TR-FRET MEKK2-MEK5 PB1 binding; for response (panel-specific, % change): at 30 µM (top of the series)
[2] = biological target: Mitogen-activated protein kinase kinase kinase 2 (Homo sapiens) (UniProt Q9Y2U5); assay: as above; conditions: TR-FRET MEKK2-MEK5 PB1 binding, TR-FRET binding assay; for response (panel-specific, % change): at 30 µM (top of the series)
Chain of Mitogen-activated protein kinase kinase kinase 2 (Homo sapiens) (Q9Y2U5 whole entry, looked up): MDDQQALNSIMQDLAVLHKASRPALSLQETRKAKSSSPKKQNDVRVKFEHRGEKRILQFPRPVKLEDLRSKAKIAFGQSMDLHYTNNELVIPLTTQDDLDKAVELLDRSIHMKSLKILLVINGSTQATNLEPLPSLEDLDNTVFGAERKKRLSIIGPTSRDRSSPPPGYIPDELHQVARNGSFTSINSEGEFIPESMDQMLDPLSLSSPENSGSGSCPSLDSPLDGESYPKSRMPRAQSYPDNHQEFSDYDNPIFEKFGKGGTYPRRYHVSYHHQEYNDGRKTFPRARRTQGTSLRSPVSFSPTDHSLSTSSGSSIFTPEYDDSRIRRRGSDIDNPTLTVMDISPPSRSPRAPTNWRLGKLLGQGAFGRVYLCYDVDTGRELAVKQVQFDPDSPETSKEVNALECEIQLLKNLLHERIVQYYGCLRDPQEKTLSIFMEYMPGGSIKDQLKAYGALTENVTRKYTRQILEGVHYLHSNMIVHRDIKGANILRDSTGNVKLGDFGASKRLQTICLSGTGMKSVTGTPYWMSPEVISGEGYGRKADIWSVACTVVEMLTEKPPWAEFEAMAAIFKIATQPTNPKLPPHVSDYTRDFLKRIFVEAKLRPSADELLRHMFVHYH

[3] = Cy5 fluorescence 665 nm counterscreen
[4] = Eu fluorescence 620 nm counterscreen

Row | SMILES | response (panel-specific, % change) [1, 3] | response (panel-specific, % change) [1, 4] | EC50 [2] [µM] | EC50 [1, 4] [µM] | response (panel-specific, % change) [2] | EC50 [1, 3] [µM]
1 | COc1cccc(OC)c1-c1nn2c(-c3cc(-c4ccccc4)n[nH]3)nnc2s1 | inactive | inactive | 2.2 |  |  | 
2 | Nc1cc2nc[nH]c2cc1N | inactive |  | 2 | 1.5 |  | 
3 | CCN1/C(=C/C(C)=C/c2sc3ccccc3[n+]2CC)Sc2ccccc21 | inactive |  |  | 2 | inactive | 
4 | CCNc1ccc2noc3c2c1C(=O)c1ccccc1-3 | inactive |  | 3.5 | 1.6 |  | 
5 | CN1CCN(c2ccc(NC(=O)c3ccc(-c4ccc(Cl)cc4)o3)cc2)CC1 | inactive | inactive |  |  |  | 
6 | CCC(=C/c1sc2ccc3ccccc3c2[n+]1C)/C=C1\Sc2ccc3ccccc3c2N1C |  |  |  | 1.9 | inactive | 4.1
